Laboratory results from US4065461A, “Amino containing pyridyloxy propanols” (Aktieselskabet Grindstedvaerket, priority 1975, dated 1977).
Read-outs that look alike come from different tables or passages of the source.

Legend:
mice = conditions: for toxicity, in words: conclusion from Table II
β2 -receptors = molecular target: T1, β2 -receptors (Felis catus, UniProt Q9TST5); experiment: β2-adrenoreceptor blockade: antagonism of isoprenaline-induced reduction in tone in the peripheral vasculature (hind quarter perfusion pressure) in anaesthetized cats; format: in vivo; conditions: cat, read-out: Approximate ED50 value for β2 -receptor blockade
T1 construct: The test animals were adult cats of either sex; from tissue; host or cells: hind quarter vasculature of anaesthetized cat, in vivo
Text: (§1) The examinations thus comprise selective effect against isoprenaline-induced changes in heart rate, which are presumed to be elicited by stimulation of β1 -receptors; and against the reduction in tone in the peripheral vasculature induced by the said agonist is presumed to be due to stimulation of β2 -receptors.
(§2) The test animals were adult cats of either sex.
(§3) The heart rate was derived electronically from the blood pressure in the right carotid artery, and the reduction in tone in the peripheral vasculature was determined by recording changes in hind quarter vascular resistance.
(§4) Each cat was dosed repeatedly at 15 minutes' intervals throughout the experiment with 1 μg isoprenaline as the hydrochloride, the dose of this and the other standard drugs being stated in terms of the base. When constant responses of both heart rate and hind quarter perfusion pressure were obtained, a dose of 4 μg/kg of one of the test compounds was administered intraveneously 2 minutes before the isoprenaline dose. This initial dose of the test compound was administered again 15 minutes later. Thereafter, the test compound was administered at 15 minutes' intervals, each successive dose being twice the preceeding dose, the injection always being given two minutes prior to the next isoprenaline dose. […] In this way, cumulative dose-response curves for the effects of each test compound could be calculated and approximately ED50 values obtained.

in vivo = conditions: mouse, iv
β1 -receptors [1] = molecular target: T2, β1 -receptors (Felis catus, UniProt Q9TST6); experiment: β1-adrenoreceptor blockade: antagonism of isoprenaline-induced changes in heart rate in anaesthetized cats; format: in vivo; conditions: for ED50: cat, read-out: Approximate ED50 value for β1 -receptor blockade; for potency as antagonist of the β1 -receptors relative to propranolol: compared with propranolol, Table I; for activity as antagonist of the β1 -receptors, in words: conclusion from Table I
T2 construct: The test animals were adult cats of either sex; from tissue; host or cells: heart of anaesthetized cat, in vivo
Text: as §1, §2, §3, §4

β1 -receptors [2] = experiment: as above; format: in vivo; conditions: for ratio between these two activities (ED50 β2 / ED50 β1): anaesthetized cats, intravenous, Table I; for selectivity for β1 -receptors versus β2 -receptors, in words: conclusion from Table I
Text: as §1, §2, §3, §4

[3] = test system: β1 -receptors and β2 -receptors; conditions: background; cited from earlier work
[4] = anaesthetized cats, intravenous, cumulative doses, isoprenaline-induced change in hind quarter perfusion pressure
[5] = anaesthetized cats, intravenous, cumulative doses, isoprenaline-induced change in heart rate

T1 sequence (Q9TST5 whole entry, the tested form may be a part): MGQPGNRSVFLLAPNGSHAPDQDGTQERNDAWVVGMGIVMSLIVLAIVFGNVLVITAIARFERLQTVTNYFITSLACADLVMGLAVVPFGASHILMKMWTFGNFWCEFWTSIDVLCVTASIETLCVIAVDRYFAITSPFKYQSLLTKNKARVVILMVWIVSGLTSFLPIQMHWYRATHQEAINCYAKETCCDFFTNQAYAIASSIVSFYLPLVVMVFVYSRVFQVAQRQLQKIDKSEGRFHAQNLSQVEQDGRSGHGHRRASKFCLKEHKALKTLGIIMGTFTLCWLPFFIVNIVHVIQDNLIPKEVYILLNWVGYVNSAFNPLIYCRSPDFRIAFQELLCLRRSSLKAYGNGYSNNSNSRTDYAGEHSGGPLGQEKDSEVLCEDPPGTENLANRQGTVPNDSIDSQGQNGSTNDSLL
T2 sequence (Q9TST6 whole entry): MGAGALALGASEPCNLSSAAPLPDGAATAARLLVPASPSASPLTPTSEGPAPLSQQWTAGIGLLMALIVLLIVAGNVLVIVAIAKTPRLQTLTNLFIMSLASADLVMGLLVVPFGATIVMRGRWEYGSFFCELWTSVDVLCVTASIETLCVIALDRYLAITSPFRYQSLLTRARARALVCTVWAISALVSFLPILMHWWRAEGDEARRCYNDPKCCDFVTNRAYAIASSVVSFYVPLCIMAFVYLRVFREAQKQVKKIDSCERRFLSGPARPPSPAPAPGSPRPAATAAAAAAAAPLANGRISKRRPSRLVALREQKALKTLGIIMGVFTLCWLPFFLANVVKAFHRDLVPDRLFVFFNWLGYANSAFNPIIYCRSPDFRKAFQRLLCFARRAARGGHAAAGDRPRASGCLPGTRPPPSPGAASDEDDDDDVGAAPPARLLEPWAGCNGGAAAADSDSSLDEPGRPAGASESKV

| SMILES | toxicity, in words (mice; intravenous, mice) | LD50 (mice; mice, female, intravenous) | ED50 (β2 -receptors; iv) | LD50 (in vivo) | ED50 (β1 -receptors [1]; iv) | potency as antagonist of the β1 -receptors relative to propranolol (β1 -receptors [1]) | activity as antagonist of the β1 -receptors, in words (β1 -receptors [1]) | ratio between these two activities (ED50 β2 / ED50 β1) (β1 -receptors [2]) | selectivity for β1 -receptors versus β2 -receptors, in words (β1 -receptors [2]) | LD50 (mice; mouse, in vivo, iv) | ED50 (β2 -receptors; [4]) | ED50 (β1 -receptors [1]; [5]) | receptor blocking profile, in words [3] |
| --- | --- | --- | --- | --- | --- | --- | --- | --- | --- | --- | --- | --- | --- |
| CC(C)NCC(O)COc1cccnc1 (centres unmarked) [Compound 1, 1-Isopropylamino-3-(3-pyridyloxy)-2-propanol] | low toxicity | 285.2 mg/kg | 1.45 mg/kg | 261 mg/kg | 0.007 mg/kg | greater than | extremely active | 207.1 | outstanding selectivity as β1 -adrenoblocking agent |  |  |  |  |
| CC(C)NCC(O)COc1cccnc1N (centres unmarked) [Compound 2, 1-Isopropylamino-3-[(2-amino-3-pyridyl)oxy]-2-propanol] | somewhat less toxic |  |  | 203 mg/kg |  | approximately equal to |  | 43.8 | high degree of selectivity | 192.0 mg/kg | 3.5 mg/kg | 0.08 mg/kg |  |
| CC(=O)Nc1ccc(OCC(O)CNC(C)C)cc1 (centres unmarked) [Compound 3, practolol] |  |  |  | 41.6 mg/kg |  | much less active than propranolol |  | 28.9 | approximately thirty times more selectivity against the β1 -receptors than against β2 -receptors | 31.6 mg/kg | 10.4 mg/kg | 0.36 mg/kg | substantial blocking activity on the β1 -receptors and not on the β2 -receptors |
| CC(C)NCC(O)COc1cccc2ccccc12 (centres unmarked) [Compound 4, 1-(isopropylamino)-3-(1-naphthyloxy)-2-propanol] |  |  |  |  |  |  |  |  |  |  |  |  | act more or less indiscriminately on both types of β-receptors |
| Cc1ccc(OCC(O)CNC(C)C)cn1 (centres unmarked) [Compound 5] |  | 239.4 mg/kg | > 4.1 mg/kg | 285 mg/kg | 0.7 mg/kg |  | not very active | > 5.8 | rather low degree of selectivity |  |  |  |  |
| CC(C)NCC(O)COc1cccnc1Cl (centres unmarked) [Compound 6] |  | 180.2 mg/kg | 1.35 mg/kg | 165 mg/kg | 0.03 mg/kg |  |  | 45.0 |  |  |  |  |  |
